Structures can show the parent of a compound that is named as a salt.

This passage reports IC50 results from patent US12077531B2, “Imidazopyridinone compound” (KISSEI PHARMACEUTICAL CO., LTD., priority 2018, dated 2024).

In the assay the target is human PHD2184-418 (Homo sapiens (Human), UniProt Q9GZT9). The assay can be described thus: PHD2 inhibitory test (fluorescence polarization, binding between PHD2 and HIF-1α). To be noted: human PHD2184-418, FITC-labeled HIF-1α556-574, 2 μM 2-oxoglutarate, 37° C. 60 minutes. How it is done: Test Example 1 PHD2 Inhibitory Test
Sequence of human PHD2184-418 (Q9GZT9 184-418): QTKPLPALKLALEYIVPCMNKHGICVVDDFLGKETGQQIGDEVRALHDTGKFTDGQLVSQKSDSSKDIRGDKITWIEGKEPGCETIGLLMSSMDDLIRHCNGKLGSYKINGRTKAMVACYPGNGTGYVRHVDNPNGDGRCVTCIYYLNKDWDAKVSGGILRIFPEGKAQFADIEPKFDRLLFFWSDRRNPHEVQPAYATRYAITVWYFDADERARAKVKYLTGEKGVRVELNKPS
(1) Expression and Preparation of Human PHD2184-418
Human PHD2184-418 containing amino acid residues 184 to 418 of the protein represented by CAC42509 (GenBank accession ID) was expressed and prepared by the following method.
An expression construct of human PHD2184-418 containing N-terminal histidine tag was introduced into pET-30a (+) vector, and the sequence was confirmed. This vector was introduced into BL21 (DE3) strain and cultured at 37° C. in LB medium containing antibiotics. After culturing, a cell lysis solution was added to the cells, and then the cells were disrupted by sonication. The disrupted suspension was centrifuged and the supernatant was purified by Ni column to give human PHD2184-418.
Human HIF-1α556-574 (FITC-labeled HIF-1α556-574), containing N-terminal FITC-Ahx, containing amino acid residues 556 to 574 (partial peptide) of HIF-1α was used as a substrate. Using FITC-labeled HIF-1α556-574, the competitive inhibition between 2-oxoglutarate and test compounds (PHD inhibitor) was evaluated based on the change in fluorescence polarization by the following method.
An enzyme (human PHD2184-418) and the substrate were diluted with an assay buffer (pH 7.4) containing 10 mM HEPES, 150 mM NaCl, 10 μM MnCl2-4H2O, 2 μM 2-oxoglutarate and 0.05% Tween-20. Test compounds were diluted with DMSO. Test compounds and human PHD2184-418 was added to the 384-well plate (Corning, black, opaque bottom) in advance. The reaction was started by the addition of FITC-labeled HIF-1α556-574. After incubating at 37° C. for 60 minutes, fluorescence polarization (excitation wavelength: 470 nm, fluorescence wavelength: 530 nm) was measured by PHERAstar FSX (BMG Labtech). Fluorescence polarization of each well was measured, and human PHD2 binding inhibitory activity of test compounds was calculated based on the value of test compound-free group.
In general terms: Polarisation of emitted light reports the rotation of a fluorescent probe.

A word on the IC50: it is the concentration at which inhibition is half-maximal. A low value points to greater potency in that assay. `O=C(O)c1ccnc(CN2CC[C@H](n3c(=O)n(-c4ccc(-c5ccccc5)cc4)c4cccnc43)C2)c1` [Example 16, (S)-2-((3-(1-([1,1′-Biphenyl]-4-yl)-2-oxo-1,2-dihydro-3H-imidazo[4,5-b]pyridin-3-yl)pyrrolidin-1-yl)methyl)isonicotinic acid]: the 50% inhibitory concentration (IC50) is 140 nM.

In turn, `Cn1c(C(=O)O)cnc1CN1CC[C@H](n2c(=O)n(-c3cccc(-c4ccccc4)c3)c3cccnc32)C1` [Example 54, (S)-2-((3-(1-([1,1′-Biphenyl]-3-yl)-2-oxo-1,2-dihydro-3H-imidazo[4,5-b]pyridin-3-yl)pyrrolidin-1-yl)methyl)-1-methyl-1H-imidazole-5-carboxylic acid] returned an IC50 of 770 nM.

Consider `Cn1c(C(=O)O)cnc1CN1C[C@@H](F)[C@H](n2c(=O)n(-c3ccc(-c4ccc(C(=O)O)cc4)cc3)c3cccnc32)C1` [Example 25, 2-(((3R,4R)-3-(1-(4′-Carboxy-[1,1′-biphenyl]-4-yl)-2-oxo-1,2-dihydro-3H-imidazo[4,5-b]pyridin-3-yl)-4-fluoropyrrolidin-1-yl)methyl)-1-methyl-1H-imidazole-5-carboxylic acid], for which the concentration for half-maximal inhibition (IC50) stood at 110 nM. To `Cn1c(C(=O)O)cnc1CN1CC[C@H](n2c(=O)n(-c3ccc(C(=O)NCC(=O)O)nc3)c3cccnc32)C1` [Example 78, (S)-2-((3-(1-(6-((Carboxymethyl)carbamoyl)pyridin-3-yl)-2-oxo-1,2-dihydro-3H-imidazo[4,5-b]pyridin-3-yl)pyrrolidin-1-yl)methyl)-1-methyl-1H-imidazole-5-carboxylic acid] belongs 11000 nM; to `Cc1cccnc1CN1CC[C@H](n2c(=O)n(-c3ccc(-c4ccncc4)cc3)c3cccnc32)C1` [Example 90, (S)-3-(1-((3-Methylpyridin-2-yl)methyl)pyrrolidin-3-yl)-1-(4-(pyridin-4-yl)phenyl)-1,3-dihydro-2H-imidazo[4,5-b]pyridin-2-one], 7460 nM. The same measure for `Cc1cccnc1CN1CC[C@H](n2c(=O)n(-c3ccc(-c4ccc(C#N)cc4)cc3)c3cccnc32)C1` [Example 34, (S)-4′-(3-(1-((3-Methylpyridin-2-yl)methyl)pyrrolidin-3-yl)-2-oxo-2,3-dihydro-1H-imidazo[4,5-b]pyridin-1-yl)-[1,1′-biphenyl]-4-carbonitrile]: 5700 nM; for `Cn1ccnc1CN1CC[C@H](n2c(=O)n(-c3ccc(-c4ccncc4)cc3)c3cccnc32)C1` [Example 36, (S)-3-(1-((1-Methyl-1H-imidazol-2-yl)methyl)pyrrolidin-3-yl)-1-(4-(pyridin-4-yl)phenyl)-1,3-dihydro-2H-imidazo[4,5-b]pyridin-2-one hydrochloride]: 1510 nM. `O=c1n(-c2ccc(-c3ccccc3)cc2)c2cccnc2n1[C@H]1CCN(Cc2ccc(O)cn2)C1` [Example 9, (S)-1-([1,1′-Biphenyl]-4-yl)-3-(1-((5-hydroxypyridin-2-yl)methyl)pyrrolidin-3-yl)-1,3-dihydro-2H-imidazo[4,5-b]pyridin-2-one] gave a half-maximal inhibitory concentration (IC50) of 8030 nM. The same measure for `Cn1ccnc1CN1CC[C@@H](n2c(=O)n(-c3ccc(-c4ccccc4)cc3)c3cccnc32)C1` [Example 3, (R)-1-([1,1′-Biphenyl]-4-yl)-3-(1-((1-methyl-1H-imidazol-2-yl)methyl)pyrrolidin-3-yl)-1,3-dihydro-2H-imidazo[4,5-b]pyridin-2-one]: 3900 nM; for `Cn1ccnc1CN1CC(n2c(=O)n(-c3ccc(-c4ccccc4)cc3)c3cccnc32)C1` [Example 13, 1-([1,1′-Biphenyl]-4-yl)-3-(1-((1-methyl-1H-imidazol-2-yl)methyl)azetidin-3-yl)-1,3-dihydro-2H-imidazo[4,5-b]pyridin-2-one]: 120 nM; for `Cn1c(C(=O)O)cnc1CN1CC[C@H](n2c(=O)n(-c3ccc(O)cc3)c3cccnc32)C1` [Example 73, (S)-2-((3-(1-(4-Hydroxyphenyl)-2-oxo-1,2-dihydro-3H-imidazo[4,5-b]pyridin-3-yl)pyrrolidin-1-yl)methyl)-1-methyl-1H-imidazole-5-carboxylic acid]: 3000 nM.

`Cn1c(C(=O)O)cnc1CN1CC[C@H](n2c(=O)n(-c3ccsc3)c3cccnc32)C1` [Example 70, (S)-1-Methyl-2-((3-(2-oxo-1-(thiophen-3-yl)-1,2-dihydro-3H-imidazo[4,5-b]pyridin-3-yl)pyrrolidin-1-yl)methyl)-1H-imidazole-5-carboxylic acid]: the IC50 worked out at 1450 nM.

In turn, `Cn1c(C(=O)O)cnc1CN1CC[C@H](n2c(=O)n(-c3ccc(-c4ccccc4)cc3)c3ccc(C(=O)NC4CCOCC4)nc32)C1` [Example 76, (S)-2-((3-(1-([1,1′-Biphenyl]-4-yl)-2-oxo-5-((tetrahydro-2H-pyran-4-yl)carbamoyl)-1,2-dihydro-3H-imidazo[4,5-b]pyridin-3-yl)pyrrolidin-1-yl)methyl)-1-methyl-1H-imidazole-5-carboxylic acid] had an IC50 of 9740 nM. In turn, `Cc1cc(C(=O)O)ccc1-c1ccc(-n2c(=O)n([C@H]3CCN(Cc4ncc(C(=O)O)n4C)C3)c3ncccc32)cn1` [Example 50, (S)-2-((3-(1-(6-(4-Carboxy-2-methylphenyl)pyridin-3-yl)-2-oxo-1,2-dihydro-3H-imidazo[4,5-b]pyridin-3-yl)pyrrolidin-1-yl)methyl)-1-methyl-1H-imidazole-5-carboxylic acid] came in with an IC50 of 140 nM. The same measure for `Cn1ccnc1CN1CCC(n2c(=O)n(-c3ccc(-c4ccccc4)cc3)c3cccnc32)CC1` [Example 12, 1-([1,1′-Biphenyl]-4-yl)-3-(1-((1-methyl-1H-imidazol-2-yl)methyl)piperidin-4-yl)-1,3-dihydro-2H-imidazo[4,5-b]pyridin-2-one]: 4950 nM; for `Cn1c(C(=O)O)cnc1CN1CC[C@H](n2c(=O)n(-c3ccc([N+](=O)[O-])cc3)c3cccnc32)C1` [Example 65, (S)-1-Methyl-2-((3-(1-(4-nitrophenyl)-2-oxo-1,2-dihydro-3H-imidazo[4,5-b]pyridin-3-yl)pyrrolidin-1-yl)methyl)-1H-imidazole-5-carboxylic acid]: 2400 nM.

For `Cc1cc(-c2ccccc2)ccc1-n1c(=O)n([C@@H]2CCN(Cc3nccn3C)C2)c2ncccc21` [Example 30, (R)-3-(1-((1-Methyl-1H-imidazol-2-yl)methyl)pyrrolidin-3-yl)-1-(3-methyl-[1,1′-biphenyl]-4-yl)-1,3-dihydro-2H-imidazo[4,5-b]pyridin-2-one], the IC50 came out at 3480 nM. To `O=C(O)c1ccnc(CN2CC[C@H](n3c(=O)n(-c4ccc(-c5ccc(O)c(C(=O)O)c5)cc4O)c4cccnc43)C2)c1` [Example 53, (S)-2-((3-(1-(3′-Carboxy-3,4′-dihydroxy-[1,1′-biphenyl]-4-yl)-2-oxo-1,2-dihydro-3H-imidazo[4,5-b]pyridin-3-yl)pyrrolidin-1-yl)methyl)isonicotinic acid] belongs 140 nM; to `O=c1n(-c2ccc(-c3ccccc3)cc2)c2cccnc2n1[C@H]1CCN(Cc2ncc[nH]2)C1` [Example 7, (S)-3-(1-((1H-Imidazol-2-yl)methyl)pyrrolidin-3-yl)-1-([1,1′-biphenyl]-4-yl)-1,3-dihydro-2H-imidazo[4,5-b]pyridin-2-one], 15600 nM; to `Cn1c(C(=O)O)cnc1CN1CC[C@H](n2c(=O)n(-c3ccc4ccccc4c3)c3cccnc32)C1` [Example 22, (S)-1-Methyl-2-((3-(1-(naphthalen-2-yl)-2-oxo-1,2-dihydro-3H-imidazo[4,5-b]pyridin-3-yl)pyrrolidin-1-yl)methyl)-1H-imidazole-5-carboxylic acid], 300 nM.

`O=C(O)c1ccc(CN2CC[C@H](n3c(=O)n(-c4ccc(-c5ccccc5)cc4)c4cccnc43)C2)nc1` [Example 17, (S)-6-((3-(1-([1,1′-Biphenyl]-4-yl)-2-oxo-1,2-dihydro-3H-imidazo[4,5-b]pyridin-3-yl)pyrrolidin-1-yl)methyl)nicotinic acid] yielded an IC50 of 520 nM.

In the case of `Cn1c(C(=O)O)cnc1CN1CC[C@H](n2c(=O)n(-c3ccc(Oc4ccccc4)cc3)c3cccnc32)C1` [Example 56, (S)-1-Methyl-2-((3-(2-oxo-1-(4-phenoxyphenyl)-1,2-dihydro-3H-imidazo[4,5-b]pyridin-3-yl)pyrrolidin-1-yl)methyl)-1H-imidazole-5-carboxylic acid], the IC50 was determined as 410 nM. To `Cn1c(C(=O)O)cnc1CN1CC[C@H](n2c(=O)n(-c3ccc(-c4ccc(NS(C)(=O)=O)cc4)cc3)c3cccnc32)C1` [Example 74, (S)-1-Methyl-2-((3-(1-(4′-(methylsulfonamido)-[1,1′-biphenyl]-4-yl)-2-oxo-1,2-dihydro-3H-imidazo[4,5-b]pyridin-3-yl)pyrrolidin-1-yl)methyl)-1H-imidazole-5-carboxylic acid] belongs 1850 nM.
